Consider three compounds from patent US10307371B2 (AI Therapeutics, Inc., priority 2014, dated 2019).

Where “and” joins values, the source holds several entries; their conditions need not be identical. Identical values can stand only once. Entries after “also recorded” stand apart in the source; their conditions may differ. A value given as a limit tells only on which side of the number the result lay.

A short description of data set [1]: Concentration of rapamycin in blood and lung after oropharyngeal aspiration (OPA) or oral gavage, LC-MS/MS. The format is in vivo, C57BL/6 mice. As to conditions: 1 mg/kg. The method, then:
Each animal was weighed prior to dosing to determine the amount of dose to be administered. A single gavage dose was administered using a 100-μL glass syringe (Hamilton, Reno, Nev.) fitted with a ball-tipped 20-G stainless steel gavage dosing needle (Popper & Sons Inc., New Hyde Park, N.Y.). The dose administered to each animal was determined from the weight of the full syringe minus that of the empty syringe. The dosing time was recorded. Dosing of animals was spaced apart to allow blood collection at the appropriate times. The dose formulations administered to each group are shown below.
Each mouse was anesthetized with isoflurane, and restrained with the mouth open. The tongue was held to one side of the mouth with forceps, and the dose was slowly injected into the distal part of the oral cavity. The nostrils were covered with a finger for two breaths to ensure aspiration (Rao et al., 2003).
Collection of Blood and Lung Samples: At study termination (1 or 72 h after dosing), mice were anesthetized by exposure to CO2, and blood was collected by cardiac puncture with dipotassium EDTA as anticoagulant. Lung tissue was excised and divided into the right and left lung. The left lung was used for analysis, and the right lung flash frozen in liquid nitrogen and stored at −70° C. for further analysis.
Triamcinolone was used as internal standard.
Lung homogenate was prepared by homogenization of weighed lung samples with 2.8-mm ball bearings in a homogenizer with tissue+deionized water (1:3 w/v) in a SPEX SamplePrep 2010 Geno/Grinder.
The concentrations of standards were arranged so that each standard came from an alternate stock standard. A six-point calibration curve, each made in triplicate, was employed for analyte quantitation. A simple linear regression model with or without weighting was employed for curve fitting. The concentration range determined was from 1-2000 ng/mL in blood and 2-2000 ng/mL in lung homogenate.
Thirty (30) μL of matrix, 30 μL of spiking solution (methanol for blanks and samples), 10 μL Internal standard solution (in MeOH) and 90 μL of MeOH were pipetted into microcentrifuge tubes, vortexed briefly, then centrifuged for 6 min at 10,000 RPM at ˜4° C. Aliquots (90 μL) of supernatant were transferred to LC vial inserts, and then analyzed by LC-MS/MS (Table 2).

Data set [2] can be described thus: Particle size distribution by laser diffraction after jet milling or wet polishing. Type of data set: physicochemical. The procedure: For jet milling, a lab scale MCOne unit from Jetpharma was used with the following operating conditions: venturi pressure 2-4 bar, milling pressure 3-5 bar, feed rate 90 g/h. For wet polishing, feed suspensions were prepared using purified water. A microfluidics high pressure homogenizer was used for the size reduction step and the resulting suspension was spray-dried. Details of the wet polishing process are set forth below.
The high pressure homogenizer used for the size reduction step of the wet polishing process was a pilot-scale Microfluidics High Pressure Homogenizer equipped with an auxiliary processing module (200 micron) and a 100 micron interaction chamber was used. The unit was operated at ˜455 bar (˜30 bar in the intensifier module hydraulic pressure). After microfluidization the fluid was removed by spray drying to generate a dry powder. A laboratory scale spray dryer, SD45 (BÜCHI, model B-290 Advanced) was equipped with a two fluid nozzle (cap and diameter were 1.4 and 0.7 mm, respectively). Two cyclones in series were used (being the first the standard Buchi cyclone and the second the high-performance Buchi cyclone) to collect the dried product. The spray drying unit was operated with nitrogen and in single pass mode, i.e. without recirculation of the drying nitrogen. The aspirator, blowing nitrogen, was set at 100% of its capacity (flow rate at maximum capacity is approximately 40 kg/h). The flow rate of the atomization nitrogen was adjusted to a value in the rotameter of 40±5 mm. Before feeding the product suspension, the spray dryer was stabilized with purified water, during which the flow rate was adjusted to 6 ml/min (20% in the peristaltic pump). The inlet temperature was adjusted to achieve the target outlet temperature (45° C.). After stabilization of the temperatures, the feed of the spray dryer was commuted from purified water to the product suspension (keeping the same flow rate used during stabilization) and the inlet temperature once again adjusted in order to achieve the target outlet temperature. At the end of the stock suspension, the feed was once more commuted to purified water in order to rinse the feed line and perform a controlled shut down. The dry product in the collection flasks under both cyclones was weighed and the yield calculated as the mass percentage of the dry product in relation to the total solids in the suspension fed to the high pressure homogenizer.
Particle size distribution was analyzed by laser diffraction. Solid state characterization (for polymorphic form and purity) was performed by high pressure liquid chromatography (HPLC), X-ray powder diffraction (XRPD), and differential scanning calorimetry (mDSC). Water content was determined by the Karl Fischer method.

For data set [3] the following is noted: human, cited from earlier work.
The conditions of data set [4]: cited from earlier work.
Data set [5] relates to angiomyolipomas. The following applies: oral, 20 patients, cited from earlier work.
Data set [6] deals with renal angiomyolipomas. As to conditions: oral, 16 patients, cited from earlier work.
For data set [7] the following is noted: study of 10 LAM patients; cited from earlier work.
For data set [8] the following is noted: oral, 12 months, cited from earlier work.
The subject of data set [9] is mTOR. The data set can be described thus: S6 phosphorylation in mouse lung as biomarker for mTOR activity. As to conditions: lung tissue.
Source text: To validate this approach, we used the presence of phosphorylated S6 protein in murine lung tissue as a biomarker for mTOR activity.
Data set [10] is described as follows: Observation for adverse effects / clinical signs after OPA or gavage dosing.
Procedure: An additional group of 6 mice received vehicle only (10% ethanol in water). […] At the 72-h necropsy, blood was obtained by cardiac puncture and the lungs removed.
The weight of dose solution administered was determined by weighing the charged syringe with dose solution prior to dosing, and weighing following dosing. […] The time of dosing was recorded as 0. Animals in groups 2 and 3 were euthanized at 1 h after dosing.
The conditions of data set [11]: cancer patients administered temsirolimus or everolimus; cited from earlier work.
The mark [12] stands for this setting: Gavage (Rapamune Oral), 1 h post-dose, individual animals.
The mark [13] stands for this setting: OPA, 1 h post-dose, individual animals.
Setting [14] is: OPA, 72 h post-dose, individual animals.

Consider `CO[C@H]1C[C@@H]2CC[C@@H](C)[C@@](O)(O2)C(=O)C(=O)N2CCCC[C@H]2C(=O)O[C@H]([C@H](C)C[C@@H]2CC[C@@H](O)[C@H](OC)C2)CC(=O)[C@H](C)/C=C(\C)[C@@H](O)[C@@H](OC)C(=O)[C@H](C)C[C@H](C)/C=C/C=C/C=C/1C` [Rapamycin, (3S,6R,7E,9R,10R,12R,14S,15E,17E,19E,21S,23S,26R,27R,34aS)-9,10,12,13, -14,21,22,23,24,25,26,27,32,33,34,34a-hexadecahydro-9,27-dihydroxy-3-[(1R)-2-[(1S,3R,4R)-4-hydroxy-3-methoxycyclohexyl]-1-methylethyl]-10,21-dimethox-y-6,8,12,14,20,26-hexamethyl-23,27-epoxy-3H-pyrido[2,1-c][1,4]oxaazacyclohentriacontine-1,5,11,28,29(4H,6H,31H)-pentone], for which, in data set [1] (setting [12]), the “Blood” value is 49.85 ng/mL and 11.3 ng/mL and 28.7 ng/mL and 28.35 ng/mL and 2.845 ng/mL and 19.35 ng/mL; the “Lung (ng/g tissue)” value is 109.8 ng/g tissue and 24.66 ng/g tissue and 122.8 ng/g tissue and 54 ng/g tissue and <LOQ and 43 ng/g tissue. Besides, in [1] (setting [13]), the “Blood” value is 622 ng/mL and 364.5 ng/mL and 937 ng/mL and 848.5 ng/mL and 615.5 ng/mL and 455.5 ng/mL; the “Lung (ng/g tissue)” value is 4500 ng/g tissue and 1874 ng/g tissue and 4006 ng/g tissue and 4700 ng/g tissue and 5040 ng/g tissue and 2642 ng/g tissue. Further, the “Rapamycin in blood, group statement” value in data set [1] (OPA, 72 h post-dose) was “below the limit of quantitation; also recorded: undetectable”. Besides, in data set [1] (setting [14]), the “Blood (ng/ml)” value is “<ELOQ”; the “Lung (ng/g tissue)” value was 11.4 ng/g tissue and 15.7 ng/g tissue and 10.8 ng/g tissue and 11.9 ng/g tissue and 13.6 ng/g tissue. Moreover, in data set [1] (oral (gavage), 72 hrs), the Rapamycin in blood entry is given as “undetectable” and the Rapamycin in lung result is given as “undetectable”. Also, in [2] (jet milling), the “PSD Dv10” value is 1.5 μm and 1.51 μm; the “PSD Dv50” value is 2.7 μm and 2.74 μm; the “PSD Dv90” value was 4.9 μm and 4.91 μm. Further, in data set [2] (wet polishing), the “PSD Dv10” value was 1.0 μm and 1.05 μm; the “PSD Dv50” value is 2.4 μm and 2.42 μm; the “PSD Dv90” value was 5.0 μm and 4.97 μm. In addition, the Volume of distribution in [3] (Rapamune NDA 21-110 and 21-083) was 780 L. Further, the Elimination half-life in [3] (assuming equivalency to rapamycin IV dosing) is 42.3 h. Further, in data set [4], the “Chemical stability of the amorphous form” value is recorded as “extremely chemically unstable”. Besides, the Serious adverse events entry in data set [5] (24 months) is “diarrhea, pneumonia, pyelonephritis, cellulitis (from an animal bite), stomatitis, and hemorrhage of a renal angiomyolipoma”. For the same compound, the Angiomyolipoma response result in [5] (during the treatment period) is recorded as “regressed “somewhat””. In addition, in data set [6] (up to 2 years), the Renal angiomyolipoma response entry is “sustained regression of renal angiomyolipomas” and the “Steady state blood levels” value is 3 to 10 ng/mL. For the same compound, in data set [6], the Adverse events result was “oral mucositis, respiratory infections, and proteinuria”. Besides, the “Patients discontinued because of serious recurrent lower respiratory tract infection or sirolimus-induced pneumonitis” value in data set [7] is on record as 3 patients. In data set [8] (blood levels 5-15 ng/ml), the Lung function entry is “stabilized lung function” and the “Serum VEGF-D levels” value was “reduced serum VEGF-D levels”. Also, the “Blood levels at which patients were maintained” value in [8] was 5 to 15 ng/mL. In [9], the “Drug level in the lung that substantially abrogates mTOR signaling (pS6)” value was “about 70 ng/g”. Further, the Clinical signs entry in data set [10] (OPA or gavage, 1 mg/kg, up to 72 h after dosing, all groups) is listed as “No significant clinical signs were observed”. The Adverse effects result in [10] (OPA, 1 mg/kg, 72 h period following dosing) is on record as “No adverse effects were observed”. Also, in data set [10] (relatively high amounts delivered directly to lung (OPA, 1 mg/kg)), the “Acute toxicity to lung tissue” value was “not acutely toxic to lung tissue”.
As to `CO[C@H]1C[C@@H]2CC[C@@H](C)[C@@](O)(O2)C(=O)C(=O)N2CCCC[C@H]2C(=O)O[C@H]([C@H](C)C[C@@H]2CC[C@@H](OCCO)[C@H](OC)C2)CC(=O)[C@H](C)/C=C(\C)[C@@H](O)[C@@H](OC)C(=O)[C@H](C)C[C@H](C)/C=C/C=C/C=C/1C` [everolimus], in data set [11], the “Cancer patients who may experience mild grade pulmonary toxicity” value was 10%.
For the compound `CO[C@H]1C[C@@H]2CC[C@@H](C)[C@@](O)(O2)C(=O)C(=O)N2CCCC[C@H]2C(=O)O[C@H]([C@H](C)C[C@@H]2CC[C@@H](OC(=O)C(C)(CO)CO)[C@H](OC)C2)CC(=O)[C@H](C)/C=C(\C)[C@@H](O)[C@@H](OC)C(=O)[C@H](C)C[C@H](C)/C=C/C=C/C=C/1C` [temsirolimus], the “Cancer patients who may experience mild grade pulmonary toxicity” value in data set [11] was 10%.
